Data reported in patent publication US9029370B2, “Substituted benzamide derivatives” (Hoffmann-La Roche Inc., priority 2011, dated 2015).
Where a name gives a salt, the structure may show the parent alone.

Assays:
[1] = molecular target: rat TAAR1 (Rattus norvegicus (Rat), UniProt Q923Y9); experiment: Radioligand binding assay on rat TAAR1; settings: rat TAAR1, HEK-293 membranes; second value of the pair (line below); read-out: Ki (μM) mouse/rat
Method: (§1) For the construction of expression plasmids the coding sequences of human, rat and mouse TAAR 1 were amplified from genomic DNA essentially as described by Lindemann et al.. The Expand High Fidelity PCR System (Roche Diagnostics) was used with 1.5 mM Mg^2+ and purified PCR products were cloned into pCR2.1-TOPO cloning vector (Invitrogen) following the instructions of the manufacturer. PCR products were subcloned into the pIRESneo2 vector (BD Clontech, Palo Alto, Calif.), and expression vectors were sequence verified before introduction in cell lines.
(§2) HEK293 cells (ATCC # CRL-1573) were cultured essentially as described by Lindemann et al. (2005). For the generation of stably transfected cell lines HEK293 cells were transfected with the pIRESneo2 expression plasmids containing the TAAR coding sequences (described above) with Lipofectamine 2000 (Invitrogen) according to the instructions of the manufacturer, and 24 hrs post transfection the culture medium was supplemented with 1 mg/ml G418 (Sigma, Buchs, Switzerland). After a culture period of about 10 d clones were isolated, expanded and tested for responsiveness to trace amines (all compounds purchased from Sigma) with the cAMP Biotrak Enzyme immunoassay (EIA) System (Amersham) following the non-acetylation EIA procedure provided by the manufacturer.
Radioligand Binding Assay on Rat TAAR1
(§3) Membrane Preparation and Radioligand Binding.
(§4) HEK-293 cells stably expressing rat TAAR1 were maintained at 37° C. and 5% CO2 in DMEM high glucose medium, containing fetal calf serum (10%, heat inactivated for 30 min at 56° C.), penicillin/streptomycin (1%), and 375 μg/ml geneticin (Gibco). Cells were released from culture flasks using trypsin/EDTA, harvested, washed twice with ice-cold PBS (without Ca^2+ and Mg^2+), pelleted at 1′000 rpm for 5 min at 4° C., frozen and stored at −80° C. […] The homogenate was centrifuged at 48′000×g for 30 min at 4° C. Subsequently, the supernatant was removed and discarded, and the pellet resuspended in 20 ml HEPES-NaOH (20 mM, pH 7.4) containing 0.1 mM EDTA using the Polytron (20 s at 14′000 rpm). This procedure was repeated and the final pellet resuspended in HEPES-NaOH containing 0.1 mM EDTA and homogenized using the Polytron. Typically, aliquots of 2 ml membrane portions were stored at −80° C. With each new membrane batch the dissociation constant (Kd) was determined via a saturation curve. […] Nonspecific binding was defined as the amount of ^3[H]-(S)-4-[(ethyl-phenyl-amino)-methyl]-4,5-dihydro-oxazol-2-ylamine bound in the presence of 10 μM unlabeled ligand. All compounds were tested at a broad range of concentrations (10 pM to 10 μM) in duplicates. […] The 96 deep well plates were incubated for 1 hr at 4° C. Incubations were terminated by rapid filtration through Unifilter-96 plates (Packard Instrument Company) and glass filters GF/C (Perkin Elmer) presoaked for 1 hr in polyethylenimine (0.3%) and washed 3 times with 1 ml of cold binding buffer. After addition of 45 μl of Microscint 40 (PerkinElmer) the Unifilter-96 plate was sealed and after 1 hr the ratioactivity counted using a TopCount Microplate Scintillation Counter (Packard Instrument Company).

[2] = molecular target: mouse TAAR1 (Mus musculus (Mouse), UniProt Q923Y8); experiment: Radioligand binding assay on mouse TAAR1; settings: mouse TAAR1, HEK-293 membranes; first value of the pair (before the slash); read-out: Ki (μM) mouse/rat
mouse TAAR1, sequence (Q923Y8 whole entry): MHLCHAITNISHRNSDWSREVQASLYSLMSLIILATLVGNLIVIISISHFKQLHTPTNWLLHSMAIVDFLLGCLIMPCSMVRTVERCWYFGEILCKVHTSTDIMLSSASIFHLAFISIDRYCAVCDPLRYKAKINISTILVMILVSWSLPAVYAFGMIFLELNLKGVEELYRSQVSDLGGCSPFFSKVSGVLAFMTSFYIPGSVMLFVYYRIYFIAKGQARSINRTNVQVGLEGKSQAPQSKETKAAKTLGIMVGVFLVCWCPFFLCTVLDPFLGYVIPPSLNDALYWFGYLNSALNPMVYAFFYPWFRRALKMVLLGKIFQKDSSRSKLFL
Method: as §1, §2
Radioligand Binding Assay on Mouse TAAR1
as §3
as §4, with “expressing mouse” for “expressing rat”

rat TAAR1, sequence (Q923Y9 whole entry): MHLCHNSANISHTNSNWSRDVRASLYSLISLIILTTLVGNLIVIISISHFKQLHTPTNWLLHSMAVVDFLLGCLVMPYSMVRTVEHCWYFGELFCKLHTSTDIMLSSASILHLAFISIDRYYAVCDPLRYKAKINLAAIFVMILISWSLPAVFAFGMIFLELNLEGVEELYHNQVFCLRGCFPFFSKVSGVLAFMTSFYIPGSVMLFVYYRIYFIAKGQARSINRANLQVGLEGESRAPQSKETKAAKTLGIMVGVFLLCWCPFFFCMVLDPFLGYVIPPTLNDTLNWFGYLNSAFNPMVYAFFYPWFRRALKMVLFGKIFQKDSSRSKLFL

| Structure (SMILES) | Ki [1] | Ki [2] |
| --- | --- | --- |
| COc1ccc(C#N)cc1NC(=O)Nc1ccc([C@@H]2CNCCO2)cc1Br [Example 57, 1-((R)-2-Bromo-4-morpholin-2-yl-phenyl)-3-(5-cyano-2-methoxy-phenyl)-urea] | 0.0127 µM | 0.0039 µM |
| N#Cc1cccc(NC(=O)Nc2ccc([C@@H]3CNCCO3)cc2F)c1F [Example 62, (R)-1-(3-Cyano-2-fluorophenyl)-3-(2-fluoro-4-(morpholin-2-yl)phenyl)urea] | 0.0028 µM | 0.0031 µM |
| O=C(Nc1ccc([C@H]2CNCCO2)cc1F)c1ccn(-c2ccc(F)cc2)n1 [Example 13, 1-(4-Fluoro-phenyl)-1H-pyrazole-3-carboxylic acid ((S)-2-fluoro-4-morpholin-2-yl-phenyl)-amide] | 0.0024 µM | 0.0011 µM |
| N#Cc1ccc(-n2cc(C(=O)Nc3ccc([C@H]4CNCCO4)cc3F)cn2)cc1 [Example 111, (S)-1-(4-Cyanophenyl)-N-(2-fluoro-4-(morpholin-2-yl)phenyl)-1H-pyrazole-4-carboxamide hydrochloride] | 0.0086 µM | 0.0074 µM |
| O=C(Nc1ccc(Cl)nc1)Nc1ccc([C@@H]2CNCCO2)cc1Cl [Example 20, (R)-1-(2-Chloro-4-morpholin-2-yl-phenyl)-3-(6-chloro-pyridin-3-yl)-urea] | 0.005 µM | – |
| O=C(Nc1ccc(C(F)(F)F)nc1)Nc1ccc([C@H]2CNCCO2)cc1F [Example 11, 1-((S)-2-Fluoro-4-morpholin-2-yl-phenyl)-3-(6-trifluoromethyl-pyridin-3-yl)-urea] | 0.0095 µM | 0.0035 µM |
| N#Cc1cnc(-n2cc(C(=O)Nc3ccc([C@H]4CNCCO4)c(F)c3)cn2)cn1 [Example 131, (S)-1-(5-Cyanopyrazin-2-yl)-N-(3-fluoro-4-(morpholin-2-yl)phenyl)-1H-pyrazole-4-carboxamide hydrochloride] | 0.0144 µM | 0.0254 µM |
| O=C(Nc1ccc([C@H]2CNCCO2)c(Cl)c1)c1cnn(-c2cncc(C(F)(F)F)n2)c1 [Example 128, (S)—N-(3-Chloro-4-(morpholin-2-yl)phenyl)-1-(6-(trifluoromethyl)pyrazin-2-yl)-1H-pyrazole-4-carboxamide hydrochloride] | 0.0025 µM | 0.0088 µM |
| CCOc1cc(C(=O)Nc2ccc([C@@H]3CNCCO3)c(F)c2)ccn1 [Example 84, (R)-2-Ethoxy-N-(3-fluoro-4-(morpholin-2-yl)phenyl)isonicotinamide hydrochloride] | 0.0047 µM | 0.0036 µM |
| N#Cc1ccc(OC(F)F)c(NC(=O)Nc2ccc([C@@H]3CNCCO3)cc2Cl)c1 [Example 47, (R)-1-(2-Chloro-4-(morpholin-2-yl)phenyl)-3-(5-cyano-2-(difluoromethoxy)phenyl)urea] | 0.0012 µM | 0.002 µM |
| N#Cc1ccnc(C(=O)Nc2ccc([C@H]3CNCCO3)cc2F)c1 [Example 79, (S)-4-Cyano-N-(2-fluoro-4-(morpholin-2-yl)phenyl)picolinamide hydrochloride] | 0.196 µM | 0.0022 µM |
| N#Cc1ccc(-n2cc(C(=O)Nc3ccc([C@H]4CNCCO4)c(Cl)c3)cn2)c(F)c1 [Example 109, (S)—N-(3-Chloro-4-(morpholin-2-yl)phenyl)-1-(4-cyano-2-fluorophenyl)-1H-pyrazole-4-carboxamide hydrochloride] | 0.0038 µM | 0.0026 µM |
| O=C(Nc1ccc([C@@H]2CNCCO2)cc1F)c1cnn(-c2ccc(F)cc2)c1 [Example 21, (R)—N-(2-fluoro-4-(morpholin-2-yl)phenyl)-1-(4-fluorophenyl)-1H-pyrazole-4-carboxamide] | 0.0022 µM | 0.0032 µM |
| Cc1nc(C(=O)Nc2ccc([C@H]3CNCCO3)cc2F)ccc1C#N [Example 135, (S)-5-Cyano-N-(2-fluoro-4-(morpholin-2-yl)phenyl)-6-methylpicolinamide hydrochloride] | 0.578 µM | 0.0105 µM |
| O=C(Nc1ccc([C@H]2CNCCO2)cc1F)c1cnn(-c2cccc(OC(F)F)c2)c1 [Example 75, (S)-1-(3-(Difluoromethoxy)phenyl)-N-(2-fluoro-4-(morpholin-2-yl)phenyl)-1H-pyrazole-4-carboxamide] | 0.0011 µM | 0.0014 µM |
| CCOc1ccc(C(=O)Nc2ccc([C@H]3CNCCO3)cc2F)cn1 [Example 138, (S)-6-Ethoxy-N-(2-fluoro-4-(morpholin-2-yl)phenyl)nicotinamide] | 0.308 µM | 0.0042 µM |
| O=C(Nc1ccc([C@@H]2CNCCO2)cc1F)c1n[nH]c2cc(F)ccc12 [Example 1, 6-Fluoro-1H-indazole-3-carboxylic acid ((R)-2-fluoro-4-morpholin-2-yl-phenyl)-amide] | 0.0051 µM | 0.001 µM |
| CCOc1cc(C(=O)Nc2ccc([C@@H]3CNCCO3)c(Cl)c2)ccn1 [Example 91, (R)—N-(3-Chloro-4-(morpholin-2-yl)phenyl)-2-ethoxyisonicotinamide hydrochloride] | 0.003 µM | 0.0053 µM |
| O=C(Nc1ccc([C@H]2CNCCO2)c(F)c1)c1ccnc(C(F)(F)F)c1 [Example 87, (S)—N-(3-Fluoro-4-(morpholin-2-yl)phenyl)-2-(trifluoromethyl)isonicotinamide hydrochloride] | 0.0202 µM | 0.0105 µM |
| COc1ccc(C#N)cc1NC(=O)Nc1ccc([C@H]2CNCCO2)cc1F [Example 39, (S)-1-(5-Cyano-2-methoxyphenyl)-3-(2-fluoro-4-(morpholin-2-yl)phenyl)urea hydrochloride] | 0.0085 µM | 0.003 µM |
| O=C(Nc1ccc(Cl)nc1)Nc1ccc(C2CCCNC2)cc1Cl (racemic) [Example 41] | 0.009 µM | 0.0015 µM |
| O=C(Nc1ccc(Cl)nc1)Nc1ccc([C@H]2CNCCO2)cc1Cl [Example 19, (S)-1-(2-Chloro-4-morpholin-2-yl-phenyl)-3-(6-chloro-pyridin-3-yl)-urea] | 0.0034 µM | – |
| O=C(Nc1ccc(Cl)nc1)Nc1ccc(C2CNCCO2)cc1Cl (racemic) [Example 14, (RS)-1-(2-Chloro-4-morpholin-2-yl-phenyl)-3-(6-chloro-pyridin-3-yl)-urea] | 0.0039 µM | – |
| N#Cc1cccc(NC(=O)Nc2ccc(C3CNCCO3)cc2C#N)c1 (racemic) [Example 33, (RS)-1-(2-Cyano-4-morpholin-2-yl-phenyl)-3-(3-cyano-phenyl)-urea] | 1.51 µM | – |
| N#Cc1cc(C2CNCCO2)ccc1NC(=O)c1ccn(-c2ccc(F)cc2)n1 (racemic) [Example 28, (RS)—N-(2-Cyano-4-(morpholin-2-yl)phenyl)-1-(4-fluorophenyl)-1H-pyrazole-3-carboxamide] | – | 0.014 µM |
